Tests used:
Format in all cases: in vivo, C57BL/6 mice
melanoma (B16F10) [1] = assay: Melanoma (B16F10) tumor-bearing model, GSK583 combined with DTX; conditions: for tumor growth compared to the vehicle control group: B16-F10 s.c. in C57BL/6 mice, GSK583 1 mg/kg i.v. every 4 days x4, DTX 5 mg/kg i.v. every 7 days x3, to DAY 16
Description: Both of the test substances DTX and GSK583 were prepared as a 20×DMSO stock solution, which was diluted with normal saline containing 5% polyoxyethylene castor oil (Cremophor EL) to the administration concentration before use.
Experimental animals and tumor strains: SPF grade male wild-type C57BL/6 mice, 6 to 8 weeks old, purchased from Beijing Vital River Laboratory Animal Technology Co., Ltd. Cells used in the experiment: murine melanoma cells (B16-F10), purchased from ATCC.
Mice were randomly divided into 4 groups with 8 mice in each group based on body weight according to the method shown in (A and B of FIG. 4), namely: (i) vehicle control group; (ii) GSK583 (1 mg/kg) group; (iii) Docetaxel (DTX; 5 mg/kg) group; (iv) GSK583 (1 mg/kg)+DTX (5 mg/kg) group. DTX was administered intravenously once every 7 days for a total of 3 doses; GSK583 and vehicle control were administered intravenously once every 4 days for a total of 4 doses. The mice were subcutaneously inoculated with B16-F10 cells with a concentration of 2× 10^6 cells/mL and 0.1 mL/mouse, and the day of inoculation was recorded as DAY 0. The administration was started on DAY 1. During the administration, the animals were weighed every 2 days. The long diameter and short diameter of the tumor were measured with a vernier caliper. The tumor size was calculated by the formula: (½)×long diameter×(short diameter) 2. The mice were euthanized on DAY 16, and after dissection, the tumor was weighed and the tumor inhibition rate was calculated.

melanoma (B16F10) [2] = assay: Melanoma (B16F10) tumor-bearing model, GSK583 combined with GEM; conditions: GSK583 1 mg/kg; for tumor growth compared to the vehicle control group: B16-F10 s.c. in C57BL/6 mice, GEM 60 mg/kg i.v. once every 4 days, 4 doses, to DAY 15
Description: The test substance GEM was prepared in normal saline, and GSK583 was prepared as a 20×DMSO stock solution, which was diluted with normal saline containing 5% polyoxyethylene castor oil (Cremophor EL) to the administration concentration before use. Experimental animals and tumor strains: SPF grade male wild-type C57BL/6 mice, 6 to 8 weeks old, purchased from Beijing Vital River Laboratory Animal Technology Co., Ltd. Cells used in the experiment: murine melanoma cells (B16-F10), purchased from ATCC. Mice were randomly divided into 4 groups with 8 mice in each group based on body weight according to the method shown in (A and B of FIG. 6), namely: (i) vehicle control group; (ii) GSK583 (1 mg/kg) group; (iii) GEM (60 mg/kg) group; (iv) GSK583 (1 mg/kg)+GEM (60 mg/kg) group. GEM, GSK583, and vehicle control were administered intravenously once every 4 days for a total of 4 doses. The mice were subcutaneously inoculated with B16-F10 cells with a concentration of 2× 10^6 cells/mL and 0.1 mL/mouse, and the day of inoculation was recorded as DAY 0. The administration was started on DAY 1. During the administration, the animals were weighed every 2 days. The long diameter and short diameter of the tumor were measured with a vernier caliper. The tumor size was calculated by the formula: (½)× long diameter×(short diameter) 2. The experiment was terminated on DAY 15. After the mice were euthanized and dissected, the tumor was weighed and photographed, and the tumor inhibition rate was calculated.

colorectal cancer (MC38) [3] = assay: Colorectal cancer (MC38) tumor-bearing model, GSK583 combined with GEM; conditions: GSK583 1 mg/kg; for tumor growth compared to the vehicle control group: MC38 s.c. in C57BL/6 mice, tumors 50 to 100 mm^3 at start, GEM 40 mg/kg i.v. once every 4 days, 4 doses, to DAY 14
Description: The test substance GEM was prepared in normal saline, and GSK583 was prepared as a 20×DMSO stock solution, which was diluted with normal saline containing 5% polyoxyethylene castor oil (Cremophor EL) to the administration concentration before use. Experimental animals and tumor strains: SPF grade male wild-type C57BL/6 mice, 6 to 8 weeks old, purchased from Beijing Vital River Laboratory Animal Technology Co., Ltd. Cells used in the experiment: murine colorectal cancer cells (MC38), purchased from Union Cell Bank (China). According to the method shown in (A and B of FIG. 8), the mice were subcutaneously inoculated with MC38 cells with a concentration of 2×10^6 cells/mL and 0.1 mL/mouse. When the tumor grew to a volume within the range of 50 to 100 mm^3, the mice were randomly divided into 4 groups with 8 mice in each group based on tumor volume, and the administration was started with the following regimen: (i) vehicle control group; (ii) GSK583 (1 mg/kg) group; (iii) GEM (40 mg/kg) group; (iv) GSK583 (1 mg/kg)+GEM (40 mg/kg) group. GEM, GSK583, and vehicle were administered intravenously once every 4 days for a total of 4 doses. The day of grouping and administration was recorded as DAY 0. During the administration, the animals were weighed every 3 days. The long diameter and short diameter of the tumor were measured with a vernier caliper. The tumor size was calculated by the formula: (½)× long diameter× (short diameter) 2. The experiment was terminated on DAY 14. After the mice were euthanized and dissected, the tumor was weighed and photographed, and the tumor inhibition rate was calculated.

melanoma (B16F10) [4] = assay: Melanoma (B16F10) tumor-bearing model, GSK583 combined with PTX; conditions: B16-F10 s.c. in C57BL/6 mice; GSK583 1 mg/kg, PTX 10 mg/kg i.v. once every 4 days, 4 doses; to DAY 15
Description: Both of the test substances PTX (Sigma) and GSK583 (MCE) were prepared as a 20× DMSO stock solution, which was diluted with normal saline containing 5% (v/v) polyoxyethylene castor oil (Cremophor EL) to the administration concentration before use. Experimental animals and tumor strains: SPF grade male wild-type C57BL/6 mice, 6 to 8 weeks old, purchased from Beijing Vital River Laboratory Animal Technology Co., Ltd. Cells used in the experiment: murine melanoma cell line (B16-F10), purchased from ATCC. Mice were randomly divided into 4 groups with 8 mice in each group based on body weight according to the method shown in (A of FIG. 1 and B of FIG. 1), namely: (i) vehicle control group; (ii) GSK583 (1 mg/kg) group; (iii) PTX (10 mg/kg) group; (iv) GSK583 (1 mg/kg)+PTX (10 mg/kg) group. PTX, GSK583, and vehicle were administered intravenously once every 4 days for a total of 4 doses. The mice were subcutaneously inoculated with B16-F10 cells with a concentration of 2× 10^6 cells/mL and 0.1 mL/mouse, and the day of inoculation was recorded as DAY 0. The administration was started on DAY 1. During the administration, the animals were weighed every 2 days. The long diameter and short diameter of the tumor were measured with a vernier caliper. The tumor size was calculated by the formula: (½)×long diameter×(short diameter) 2. The experiment was terminated on DAY 15. After the mice were euthanized and dissected, the tumor was weighed and the tumor inhibition rate was calculated.

colorectal cancer (MC38) [5] = assay: Colorectal cancer (MC38) tumor-bearing model, GSK583 combined with OXA; conditions: GSK583 1 mg/kg; for tumor growth compared to the vehicle control group: MC38 s.c. in C57BL/6 mice, tumors 100 mm^3 at start, OXA 6 mg/kg i.v. once every 4 days, 4 doses, to DAY 14
Description: According to the method shown in (A and B of FIG. 10), the mice were subcutaneously inoculated with MC38 cells with a concentration of 5×10^6 cells/mL and 0.1 mL/mouse. […] OXA, GSK583, and vehicle were administered intravenously once every 4 days for a total of 4 doses. The day of grouping and administration was recorded as DAY 0. During the administration, the animals were weighed every 3 days. The long diameter and short diameter of the tumor were measured with a vernier caliper. The tumor size was calculated by the formula: (½)×long diameter×(short diameter) 2. The experiment was terminated on DAY 14. After the mice were euthanized and dissected, the tumor was weighed and photographed, and the tumor inhibition rate was calculated.

| Compound | tumor growth compared to the vehicle control group (melanoma (B16F10) [1]) | tumor growth compared to the vehicle control group (melanoma (B16F10) [2]) | tumor growth compared to the vehicle control group (colorectal cancer (MC38) [3]) | tumor growth compared to the vehicle control group (colorectal cancer (MC38) [5]) | further results |
| --- | --- | --- | --- | --- | --- |
| CC(=O)O[C@@]12CO[C@@H]1C[C@H](O)[C@@]1(C)C(=O)[C@H](O)C3=C(C)[C@@H](OC(=O)[C@H](O)[C@@H](NC(=O)OC(C)(C)C)c4ccccc4)C[C@@](O)([C@@H](OC(=O)c4ccccc4)[C@H]21)C3(C)C [DTX, Docetaxel] | significantly inhibited tumor growth |  |  |  | tumor weight at the end of the administration (melanoma (B16F10) [1]; B16-F10 in C57BL/6 mice, GSK583 1 mg/kg, DTX 5 mg/kg i.v., DAY 16, vs control group): significantly and statistically lower than that of the control group; growth rate of tumor volume (melanoma (B16F10) [1]; B16-F10 in C57BL/6 mice, GSK583 1 mg/kg, DTX 5 mg/kg i.v., vs control group): slower than that of the control group |
| Nc1ccn([C@@H]2O[C@H](CO)[C@@H](O)C2(F)F)c(=O)n1 [GEM, Gemcitabine] |  | significantly inhibited tumor growth | no significant inhibitory effect |  | tumor weight at the end of the administration (melanoma (B16F10) [2]; B16-F10 in C57BL/6 mice, GEM 60 mg/kg i.v. every 4 days x4, DAY 15, vs control group): significantly and statistically lower than that of the control group; growth rate of tumor volume (melanoma (B16F10) [2]; B16-F10 in C57BL/6 mice, GEM 60 mg/kg i.v. every 4 days x4, vs control group): slower than that of the control group; growth rate of tumor volume (colorectal cancer (MC38) [3]; MC38 in C57BL/6 mice, GEM 40 mg/kg i.v. every 4 days x4): no significant inhibitory effect |
| CC(C)(C)S(=O)(=O)c1ccc2nccc(Nc3n[nH]c4ccc(F)cc34)c2c1 [GSK583] | no significant inhibitory effect on tumor growth | no significant inhibitory effect on tumor growth | no significant inhibitory effect on tumor growth | no significant inhibitory effect on tumor growth | tumor growth compared to the vehicle control group (melanoma (B16F10) [4]): no significant inhibitory effect on tumor growth |
| O=C1[O][Pt]2([NH][C@@H]3CCCC[C@H]3[NH]2)[O]C1=O [OXA, Oxaliplatin] |  |  |  | no significant inhibitory effect | growth rate of tumor volume (colorectal cancer (MC38) [5]; MC38 in C57BL/6 mice, OXA 6 mg/kg i.v. every 4 days x4): no significant inhibitory effect |

From patent US20240423971A1, “APPLICATION OF RIP2 INHIBITOR COMBINED WITH CHEMOTHERAPY DRUG” (NINGBO COMBIREG PHARMACEUTICAL TECHNOLOGY CO., LTD., priority 2021, published 2024)
